Measured values taken from patent US20050170041A1, “Chewing gum compositions comprising monatin and methods for making same” (Cargill, Inc., priority 2003, published 2005).
Residues, ends and D or L forms follow the SMILES beside them.

Experiments:
[1] = Sweetness comparison procedure against sucrose reference solutions (sensory panel); type: in vivo; conditions: experienced sensory evaluators
Procedure: The S,S stereoisomer of monatin is approximately 50-200 times sweeter than sucrose by weight. The R,R stereoisomer of monatin is approximately 2000-2400 times sweeter than sucrose by weight. The sweetness of the monatin is calculated using experienced sensory evaluators in a sweetness comparison procedure, where a test sweetener solution is matched for sweetness intensity against one of a series of reference solutions.
Specifically, one may assess sweetness of a sweetener relative to sucrose by using a panel of trained sensory evaluators experienced in the sweetness estimation procedure. All samples (in same buffers) are served in duplicate at a temperature of 22° C.±1° C. Sample solutions may be prepared, for example, using a buffer comprising 0.16% (v/w) citric acid and 0.02% (v/w) sodium citrate at ˜pH 3.0. Test solutions, coded with 3 digit random number codes, are presented individually to panelists, in random order. Sucrose reference standards, ranging from 2.0-10.0% (w/v) sucrose, increasing in steps of 0.5% (w/v) sucrose are also provided. Panelists are asked to estimate sweetness by comparing the sweetness of the test solution to the sucrose standards. […]
Sucrose equivalent value (SEV) (e.g., % sucrose), determined by the panel of trained sensory evaluators, is plotted as a function of monatin concentration to obtain a dose response curve. […]

[2] = Sensory evaluation of sweeteners in iced tea; type: in vivo; conditions: 200 ml serving, aspartame 450 ppm, monatin 40 ppm, panel n=6; for Comments: sweetness and flavor profile: sucralose 170 ppm
Procedure: Monatin formulations, including R,R monatin or R,R monatin/erythritol combinations, were assessed relative to other known sweeteners (aspartame and sucralose) in iced tea. The key sensory parameters assessed included sweetness quality, aftertaste, bitter taste and its aftertaste. Qualitative evaluation has been carried out.
An ice tea formulation was developed to evaluate sweetener performance (Table 7).
Sweeteners were added to tea at the following concentrations:
The evaluation of ice tea drinks was carried out by a panel (n=6) of experienced sensory evaluators.

[3] = Sensory stability of monatin and aspartame at pH 2.5, 3.0, 4.0 at 40° C.; type: physicochemical; conditions: for Rate constant (k) of sweetness loss: 40° C., pseudo-first order assumed; for Sweetness Retained: after 100 days storage at 40° C.; for SEV Aspartame / Retention of Aspartame Sweetness: stored at 40° C., aspartame 400 ppm
Procedure: The sensory stability of monatin solutions prepared at pH 2.5, 3.0 and 4.0 and stored at 40° C. was monitored for 100 days. Loss of sweetness from these solutions was compared with the losses of sweetness from aspartame solutions prepared and stored under identical conditions.
The sensory stability of monatin (8% SEV, ˜55 ppm, synthetic blend containing approximately 96% of the 2R,4R/2S, 4S enantiometric pair and 4% of the 2R,4S/2S,4R enantiometric pair) in phosphate/citrate buffers having a pH of 2.5, 3.0, and 4.0 was examined after storage at 40° C. The stability of monatin was compared to that of aspartame (400 ppm) in the same buffers. Three sucrose reference solutions were prepared in the same phosphate/citrate buffers as the monatin and aspartame solutions. All prepared solutions were stored in the dark.
The sweetness of each sweetener relative to sucrose was assessed in duplicate by a panel (n=8) of trained sensory evaluators experienced in the sweetness estimation procedure. All samples (in the same buffers) were served in duplicate at a temperature of 22° C.±1° C. Monatin (test) solutions, coded with 3 digit random number codes were presented individually to panelists, in random order. Sucrose reference standards, ranging from 4.0-10.0% (w/v) sucrose, increasing in steps of 0.5% (w/v) sucrose were also provided. Panelists were asked to estimate sweetness by comparing the sweetness of the test solution to the sucrose standards. This was carried out by taking 3 sips of the test solution, followed by a sip of water, followed by 3 sips of sucrose standard followed by a sip of water, etc. Panelists were encouraged to estimate the sweetness to one decimal place, e.g., 6.8, 8.5. A five minute rest period was imposed between evaluating the test solutions. Panelists were also asked to rinse well and eat a cracker to reduce any potential carry over effects.
If a pseudo-first order breakdown reaction is assumed, a plot of logn percentage retention versus time (logn % RTN v. t) allows estimation of the half-life (t½) and rate constant (k) of sweetness loss under any given set of conditions. In so doing, the kinetics of monatin and aspartame sweetness loss may be summarized as follows in Table 14.

With `N[C@@H](C[C@@](O)(Cc1c[nH]c2ccccc12)C(=O)O)C(=O)O` (single isomer, unassigned) [R,R stereoisomer of monatin] the “sweetness relative to sucrose by weight” value [1] was 2000-2400 times sweeter than sucrose.
In the case of `COC(=O)[C@H](Cc1ccccc1)NC(=O)[C@@H](N)CC(=O)O` [Aspartame, reference compound] (H-Asp-Phe-OMe), the “Comments: flavor enhancement (lemon flavor notes)” value [2] is reported as “tea flavor. No evidence of flavor”, the “Comments: sweetness and flavor profile” value [2] is reported as “Good temporal characteristics although” and the “Rate constant (k) of sweetness loss” value ([3]; pH 2.5) is reported as 0.013 day⁻¹. The “Sweetness Retained” value ([3]; pH 2.5) was 11%, the “SEV Aspartame” value ([3]; pH 2.5, day 0) was 7.34 % sucrose and the “Retention of Aspartame Sweetness” value ([3]; pH 2.5, day 1) was 94.0%. The “SEV Aspartame” value ([3]; pH 2.5, day 1) was 6.90 % sucrose, the “Retention of Aspartame Sweetness” value ([3]; pH 2.5, day 2) was 92.6% and the “SEV Aspartame” value ([3]; pH 2.5, day 2) was 6.80 % sucrose. The “Retention of Aspartame Sweetness” value ([3]; pH 2.5, day 3) was 89.9%, the “SEV Aspartame” value ([3]; pH 2.5, day 3) was 6.60 % sucrose and the “Retention of Aspartame Sweetness” value ([3]; pH 2.5, day 4) was 85.7%. The “SEV Aspartame” value ([3]; pH 2.5, day 4) was 6.29 % sucrose, the “Retention of Aspartame Sweetness” value ([3]; pH 2.5, day 7) was 81.9% and the “SEV Aspartame” value ([3]; pH 2.5, day 7) was 6.01 % sucrose. The “Retention of Aspartame Sweetness” value ([3]; pH 2.5, day 8) was 81.5%, the “SEV Aspartame” value ([3]; pH 2.5, day 8) was 5.98 % sucrose and the “Retention of Aspartame Sweetness” value ([3]; pH 2.5, day 9) was 81.3%. The “SEV Aspartame” value ([3]; pH 2.5, day 9) was 5.97 % sucrose, the “Retention of Aspartame Sweetness” value ([3]; pH 2.5, day 11) was 79.8% and the “SEV Aspartame” value ([3]; pH 2.5, day 11) was 5.86 % sucrose. The “Retention of Aspartame Sweetness” value ([3]; pH 2.5, day 50) was 57.1%, the “SEV Aspartame” value ([3]; pH 2.5, day 50) was 4.19 % sucrose and the “Retention of Aspartame Sweetness” value ([3]; pH 2.5, day 100) was 10.9%. For the same compound, the “SEV Aspartame” value ([3]; pH 2.5, day 100) was 0.80 % sucrose, the “Rate constant (k) of sweetness loss” value ([3]; pH 3.0) was 0.009 day⁻¹ and the “Sweetness Retained” value ([3]; pH 3.0) was 31%. For the same compound, the “SEV Aspartame” value ([3]; pH 3.0, day 0) was 7.15 % sucrose, the “Retention of Aspartame Sweetness” value ([3]; pH 3.0, day 1) was 96.5% and the “SEV Aspartame” value ([3]; pH 3.0, day 1) was 6.90 % sucrose. For the same compound, the “Retention of Aspartame Sweetness” value ([3]; pH 3.0, day 2) was 96.1%, the “SEV Aspartame” value ([3]; pH 3.0, day 2) was 6.87 % sucrose and the “Retention of Aspartame Sweetness” value ([3]; pH 3.0, day 3) was 92.3%. For the same compound, the “SEV Aspartame” value ([3]; pH 3.0, day 3) was 6.60 % sucrose, the “Retention of Aspartame Sweetness” value ([3]; pH 3.0, day 4) was 89.9% and the “SEV Aspartame” value ([3]; pH 3.0, day 4) was 6.43 % sucrose. The “Retention of Aspartame Sweetness” value ([3]; pH 3.0, day 7) was 86.3%, the “SEV Aspartame” value ([3]; pH 3.0, day 7) was 6.17 % sucrose and the “Retention of Aspartame Sweetness” value ([3]; pH 3.0, day 8) was 82.9%. The “SEV Aspartame” value ([3]; pH 3.0, day 8) was 5.93 % sucrose, the “Retention of Aspartame Sweetness” value ([3]; pH 3.0, day 9) was 83.1% and the “SEV Aspartame” value ([3]; pH 3.0, day 9) was 5.94 % sucrose. The “Retention of Aspartame Sweetness” value ([3]; pH 3.0, day 11) was 81.5%, the “SEV Aspartame” value ([3]; pH 3.0, day 11) was 5.83 % sucrose and the “Retention of Aspartame Sweetness” value ([3]; pH 3.0, day 50) was 65.9%. The “SEV Aspartame” value ([3]; pH 3.0, day 50) was 4.71 % sucrose, the “Retention of Aspartame Sweetness” value ([3]; pH 3.0, day 100) was 30.8% and the “SEV Aspartame” value ([3]; pH 3.0, day 100) was 2.20 % sucrose. The “Rate constant (k) of sweetness loss” value ([3]; pH 4.0) was 0.005 day⁻¹, the “Sweetness Retained” value ([3]; pH 4.0) was 58% and the “SEV Aspartame” value ([3]; pH 4.0, day 0) was 7.10 % sucrose. For the same compound, the “Retention of Aspartame Sweetness” value ([3]; pH 4.0, day 3) was 95.1%, the “SEV Aspartame” value ([3]; pH 4.0, day 3) was 6.75 % sucrose and the “Retention of Aspartame Sweetness” value ([3]; pH 4.0, day 8) was 87.8%. For the same compound, the “SEV Aspartame” value ([3]; pH 4.0, day 8) was 6.23 % sucrose, the “Retention of Aspartame Sweetness” value ([3]; pH 4.0, day 11) was 84.8% and the “SEV Aspartame” value ([3]; pH 4.0, day 11) was 6.02 % sucrose. The “Retention of Aspartame Sweetness” value ([3]; pH 4.0, day 17) was 81.0%, the “SEV Aspartame” value ([3]; pH 4.0, day 17) was 5.75 % sucrose and the “Retention of Aspartame Sweetness” value ([3]; pH 4.0, day 24) was 82.4%. For the same compound, the “SEV Aspartame” value ([3]; pH 4.0, day 24) was 5.85 % sucrose, the “Retention of Aspartame Sweetness” value ([3]; pH 4.0, day 50) was 74.5% and the “SEV Aspartame” value ([3]; pH 4.0, day 50) was 5.29 % sucrose. The “Retention of Aspartame Sweetness” value ([3]; pH 4.0, day 100) was 57.7% and the “SEV Aspartame” value ([3]; pH 4.0, day 100) was 4.10 % sucrose.
With `NC(CC(O)(Cc1c[nH]c2ccccc12)C(=O)O)C(=O)O` (single isomer, unassigned) [S,S stereoisomer of monatin] the “sweetness relative to sucrose by weight” value [1] was 50-200 times sweeter than sucrose.
With `OC[C@H]1O[C@H](O[C@]2(CCl)O[C@H](CCl)[C@@H](O)[C@@H]2O)[C@H](O)[C@@H](O)[C@H]1Cl` [Sucralose] the “Comments: sweetness and flavor profile” value [2] was “Delay in sweetness onset means first”.
